# Assays:
# [1] = system: experimental autoimmune neuritis (EAN) rat model; assay: Preventive administration, pain threshold of EAN rat model; type: in vivo; conditions: preventive continuous administration into the subarachnoid space by Micro Infusion Pump from immunization with P2 peptide-adjuvant; male LEW/CrlCrlj rat; FIG. 2
# From the text: (§1) The effect of P2X4 receptor antagonist on neuropathic pain was examined using an experimental autoimmune neuritis (EAN) rat model (Examples 3 and 4), which has been used as an experimental model for Guillain-Barré syndrome ([…]).
# Six-week-old male LEW/CrlCrlj rat was acclimatized for about one week, and an indwelling polystyrene catheter with a 0.30 mm outside diameter was placed into the subarachnoid space. Three days or more after indwelling of the catheter for administration into the subarachnoid space, the rat was anesthetized with isoflurane, and an adjuvant or P2 peptide-adjuvant solution was administered by intradermal tale base injection in an amount of 80 μg/80 μL/rat. The compound A was continuously administered by Micro Infusion Pump (Primetech). The pump was placed at the same time of administration of P2 peptide-adjuvant.
# [2] = system: experimental autoimmune neuritis (EAN) rat model; assay: Therapeutic administration, pain threshold of EAN rat model; type: in vivo; conditions: therapeutic administration into the subarachnoid space from thirteen days after immunization (average manifestation score 2 or more); male LEW/CrlCrlj rat; FIG. 3
# From the text: as §1
# Six-week-old male LEW/CrlCrlj rat was acclimatized for about one week, and an indwelling polystyrene catheter with a 0.30 mm outside diameter was placed into the subarachnoid space. Three days or more after indwelling of the catheter for administration into the subarachnoid space, the rat was anesthetized with isoflurane, and an adjuvant or P2 peptide-adjuvant solution was administered by intradermal tale base injection in an amount of 80 μg/80 μL/rat. Micro Infusion Pump was simultaneously placed into the back of the rat, and administration of the vehicle into the subarachnoid space was initiated. After immunization, symptom was observed (Table 2), and change of pain threshold was observed.
structure (smiles),measurement,setting,value
"O=C1CC(=O)N(c2cccc(-c3nnn[nH]3)c2)c2ccc3ccccc3c2N1.[K] [Compound A, 5-[3-(1H-tetrazol-5-yl)phenyl]-1H-naphtho[1,2-b][1,4]diazepine-2,4(3H,5H)-dione potassium salt]",influence on pain threshold (allodynia),[1],suppress pains in initial and later manifestations of the disease
same,influence on pain threshold (analgesic effect),[2],significant analgesic effect on pain in later manifestation of the disease

# Source: patent US20190046539A1, “PROPHYLACTIC OR THERAPEUTIC AGENT FOR NEUROPATHIC PAIN ASSOCIATED WITH GUILLAIN-BARRE SYNDROME” (KYUSHU UNIVERSITY, priority 2011, published 2019)
